One may read the CC50 as the concentration that lowers cell viability or growth by half. In general, IC50 refers to the concentration that inhibits the measured activity by half. High values mean a need for much substance, low ones inhibition by little substance.

For data set [1], the system named is human oral squamous carcinoma. Also on record: method as in PMID 32858984, PMID 31892556. To be noted: cited from earlier work.
For data set [2], the system named is Ca9-22 squamous cell carcinoma cells. As to the kind of experiment: MTT cytotoxicity against Ca9-22 squamous cell carcinoma. It counts as cell-based, human. The note with it: for CC50: 48 h, MTT, read-out: Ca9-22 CC50; for Ca9-22 SI: average CC50 HGF/HPLF/HPC divided by CC50 Ca9-22. The essentials: (§1)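 Seed cells in DMEM/10% FBS/antibiotics, add compounds at a range of quantities, incubate 48 h, then assess viability via MTT.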

The subject of data set [3] is HSC-2 squamous cell carcinoma cells. As to the kind of experiment: MTT cytotoxicity against HSC-2 squamous cell carcinoma. It counts as cell-based, human. The note with it: for CC50: 48 h, MTT, read-out: HSC-2 CC50; for HSC-2 SI: average CC50 HGF/HPLF/HPC divided by CC50 HSC-2. The essentials: as §1
Data set [4] relates to HSC-3 squamous cell carcinoma cells. In words: MTT cytotoxicity against HSC-3 squamous cell carcinoma. It counts as cell-based, human. The note with it: for CC50: 48 h, MTT, read-out: HSC-3 CC50; for HSC-3 SI: average CC50 HGF/HPLF/HPC divided by CC50 HSC-3. The essentials:
as §1

In data set [5] the test system is HSC-4 squamous cell carcinoma cells. In words: MTT cytotoxicity against HSC-4 squamous cell carcinoma. It counts as cell-based, human. To be noted: for CC50: 48 h, MTT, read-out: HSC-4 CC50; for HSC-4 SI: average CC50 HGF/HPLF/HPC divided by CC50 HSC-4. The essentials:
as §1

Data set [6] concerns Ca9-22, HSC-2, HSC-3, and HSC-4 squamous cell carcinoma cell lines. In words: Average over Ca9-22, HSC-2, HSC-3 and HSC-4 OSCC cell lines. It counts as cell-based, human. To be noted: for Average SI: average of SI for four OSCC cell lines; for CC50: average of four OSCC cell lines, read-out: Average CC50. The essentials: as §1
Data set [7] deals with HGF non-malignant cells. As to the kind of experiment: MTT cytotoxicity against human gingival fibroblast (HGF). It counts as cell-based. To be noted: non-malignant oral cells, 48 h. The method in brief:
as §1

The subject of data set [8] is HPLF non-malignant cells. In words: MTT cytotoxicity against human periodontal ligament fibroblast (HPLF). The note with it: non-malignant oral cells, 48 h. It counts as cell-based. The essentials: as §1
Data set [9] has as its system HPC non-malignant cells. As to the kind of experiment: MTT cytotoxicity against human pulp cell (HPC). It counts as cell-based. To be noted: non-malignant oral cells, 48 h. The essentials: as §1
Data set [10] has as its system HGF, HPLF, and HPC non-malignant cells. In words: Average over HGF, HPLF and HPC non-malignant oral cells. It counts as cell-based, human. The note with it: average of HGF. The method in brief:
as §1

Data set [11] deals with CRL1790 non-malignant colon cells. As to the kind of experiment: Cytotoxicity against CRL1790 non-malignant colon cells. The note with it: Homo sapiens, 48 h. It counts as cell-based. The procedure:
(§2) The culture medium was supplemented with 10% heat-inactivated fetal bovine serum (FBS) and 1% penicillin–streptomycin antibiotics. The time of the bioassays was 48 h. The determinations were undertaken in triplicate on three different occasions.

Data set [12] relates to HCT116 and HT29 colon cancer cells. In words: Average over HCT116 and HT29 colon cancer cells. It counts as cell-based, human. To be noted: for IC50: Homo sapiens, average of HCT116 and HT29, unit printed only for the single cell-line columns; for Average SI: average of SI for HCT116 and HT29; for PSE (potency-selectivity expression): reciprocal of average IC50 x average SI x 100, colon cells. The procedure: as §2

Data set [13] can be described thus: MTT cytotoxicity against human gingival fibroblast (HGF). It counts as cell-based. To be noted: human, human gingival fibroblasts (HGF), non-malignant oral cells. The method in brief:
as §1

A short description of data set [14]: MTT cytotoxicity against human periodontal ligament fibroblast (HPLF). It counts as cell-based. The note with it: human, human periodontal ligament fibroblasts (HPLF), non-malignant oral cells. The essentials: as §1
The nature of data set [15]: MTT cytotoxicity against human pulp cell (HPC). It counts as cell-based. To be noted: human, human pulp cells (HPC), non-malignant oral cells. The method in brief: as §1
A short description of data set [16]: Average over HGF, HPLF and HPC non-malignant oral cells. It counts as cell-based, human. To be noted: human, HPLF and HPC non-malignant oral cells (average), average of HGF. The essentials: as §1
The test system of data set [17] is CEM cells. As to the kind of experiment: Differential DNA staining (DNS) cytotoxicity assay, CEM cells. It counts as cell-based. The note with it: Homo sapiens, CCRF-CEM. As to the method: (§3) The method used for generating the data of human acute lymphocytic leukemia (CEM) and human acute promyelocytic leukemia (HL-60) cells in Table 4 has been described previously. In brief, the cells were cultured in media supplemented with 10% FBS and antibiotics. […] The CC50 values of the compounds listed in Table 4 were obtained by linear interpolation equations [28, 29].

The test system of data set [18] is HL-60 cells. In words: Differential DNA staining (DNS) cytotoxicity assay, HL-60 cells. It counts as cell-based. To be noted: Homo sapiens. The procedure:
as §3

The subject of data set [19] is Ca9-22 cells. In words: Cell cycle analysis in Ca9-22 cells (propidium iodide). It counts as cell-based, human. To be noted: dose-response 0.625-10 μM, 24 h.
Experimental: Apoptosis induction in Ca9-22 cells was evaluated by cell cycle analysis and Western blot analysis as described previously [25, 28] […] Briefly, for the cell cycle analysis, cells were treated for 24 h with the test samples. Cells were then fixed, digested with RNase A, stained with propidium iodide, filtered through Falcon® cell trainers (Corning Inc., Corning, NY, USA), and then subjected to cell sorting.
For data set [20], the system named is CEM cells. In words: Annexin V-FITC apoptosis assay in CEM cells. It counts as cell-based, human. The note with it: CC50 and twice the CC50 concentrations, 24 h. The procedure:
In order to discover if representative compounds induce apoptosis, the annexin V-FITC assay was used. In brief, CEM cells were treated with various compounds for 24 h. The cells were collected and stained with propidium iodide and annexin V-FITC.

For data set [21], the system named is CEM cells. As to the kind of experiment: ROS production in CEM cells (carboxy-H2DCFDA, flow cytometry). The note with it: CC50 and twice the CC50 concentrations. It counts as cell-based, human. The procedure:
(§4) Apoptosis induction in Ca9-22 cells was evaluated by cell cycle analysis and Western blot analysis as described previously (Figure 5). Briefly, for the cell cycle analysis, cells were treated for 24 h with the test samples. Cells were then fixed, digested with RNase A, stained with propidium iodide, filtered through Falcon® cell trainers (Corning Inc., Corning, NY, USA), and then subjected to cell sorting. For the Western blot, cell lysates (equivalent to 5 µg protein) were applied to SDS-polyacrylamide gel electrophoresis. A literature method was used to determine whether representative compounds led to increases in the production of ROS [29]. In brief, CEM cells were treated with the compounds overnight, then with 6-carboxy-2′,7′-dichlorodihydrofluorescein diacetate (carboxy-H2DCFDA) and the samples were processed using flow cytometry.
For orientation: In flow cytometry, cells or beads pass a laser one at a time.

Data set [22] deals with Ca9-22 cells. As to the kind of experiment: Western blot for caspase 3 activation in Ca9-22 cells. It counts as cell-based, human. The note with it: 3 μM, 24 h. The procedure: as §4
(In western blotting, separated proteins are transferred to a membrane and probed.)

The subject of data set [23] is CEM cells. In words: Mitochondrial membrane potential in CEM cells (JC-1, flow cytometry). It counts as cell-based, human. The note with it: 7 h. The procedure:
The effect on the mitochondrial membrane potential in CEM cells was undertaken using a published method. In brief, the cells were incubated with different compounds for 7 h. The cells were then stained with the JC-1 dye, and the samples were examined by flow cytometry. The results are portrayed in Figure 6C.

Data set [24] deals with HCT116 colon cancer cells. As to the kind of experiment: Cytotoxicity against HCT116 colon cancer cells. It counts as cell-based, human. The note with it: IC50 CRL1790 / IC50 HCT116. The procedure:
as §2

The test system of data set [25] is HT29 colon cancer cells. As to the kind of experiment: Cytotoxicity against HT29 colon cancer cells. It counts as cell-based, human. To be noted: IC50 CRL1790 / IC50 HT29. The procedure:
as §2

The mark [26] stands for this setting: 24 h, read-out: CC50 CEM Cells 24 h.
Where [27] appears, read: 48 h, read-out: CC50 CEM Cells 48 h.
Setting [28] is: HL-60, 24 h, read-out: CC50 HL-60 Cells 24 h.
Where [29] appears, read: HL-60, 48 h, read-out: CC50 HL-60 Cells 48 h.

Each structure is given as a SMILES string. Where two headings read alike, the source gives them in different places.

Turning to `COc1ccc2c(=O)c(/C=C/c3ccc(O)cc3)coc2c1` [3-[(1E)-2-(4-hydroxyphenyl)ethenyl]-7-methoxy-4H-1-benzopyran-4-one], the “SI (tumor specificity)” value in data set [1] is recorded as 182.

Take `COc1ccc2c(=O)c(/C=C/c3ccccc3)coc2c1` [7-methoxy-3-[(1E)-2-phenylethenyl]-4H-1-benzopyran-4-one]: the “SI (tumor specificity)” value in [1] is 301.

Turning to `[NH2][Pt]([NH2])([Cl])[Cl]` [CDDP, cisplatin, reference compound], the CC50 in data set [2] is 212 µM; in data set [3] it was 204 µM; in [4], 46.9 µM; in data set [5] it was 60.4 µM; in [6] it was 131 µM; in [7] it was above 1000 µM. Besides, the CC50 in data set [8], in data set [9] and in data set [10] was above 1000 µM each time. For the same compound, in data set [2], the “Ca9-22 SI” value is recorded as above 4.72. In addition, in [3], the “HSC-2 SI” value is given as above 4.90. The “HSC-3 SI” value in data set [4] is recorded as above 21.3. The “HSC-4 SI” value in data set [5] is above 16.6. The “Average SI” value in data set [6] was above 11.1.

As for `CCN(CC)Cc1cc(C=C2CNCC(=Cc3ccc(OC)c(OC)c3)C2=O)ccc1O.Cl.Cl` [Compound 2b, 3-(3-Diethylaminomethyl-4-hydroxybenzylidene)-5-(3,4-dimethoxybenzylidene)-4-piperidone dihydrochloride], the IC50 in data set [11] came out at 15.2 ± 0.15 µM; in [12] it was 0.25 µM. Moreover, the “Average SI” value worked out at 64.2 in [12] and 8.27 in data set [6]. Moreover, the “PSE (potency-selectivity expression)” value in data set [12] is listed as 25,680. Moreover, the CC50 in [2] (Homo sapiens, Ca9-22) was 0.65 µM; in [3] (Homo sapiens, HSC-2) it was 1.01 µM; in data set [4] (Homo sapiens, HSC-3), 0.76 µM; in data set [5] (Homo sapiens, HSC-4) it was 1.16 µM; in [6] (Homo sapiens), below 1 µM; in data set [6] it was 0.9 µM. Further, the CC50 in data set [17] (setting [26]) came to 0.63 ± 0.08 µM; in data set [17] (setting [27]), 0.82 ± 0.03 µM; in [18] (setting [28]), 7.75 ± 0.26 µM; in [18] (setting [29]) it was 4.82 ± 0.91 µM. In addition, in data set [2], the “Ca9-22 SI” value is given as 10.8. The “HSC-2 SI” value in [3] worked out at 6.96. For the same compound, the “HSC-3 SI” value in data set [4] is recorded as 9.25. Also, the “HSC-4 SI” value in [5] is given as 6.06. Moreover, the CC50 at 48 h in data set [13] worked out at 13.3 µM; in data set [14], 5.5 µM; in data set [15], 2.3 µM; in data set [16], 7.03 µM. For the same compound, the “optimal concentration for the subG1 population” value in data set [19] was 2.5 µM. In addition, in data set [20], the apoptotic cells entry is recorded as “approximately 30%”. Besides, the ROS generation result in [21] is “generate ROS”. Moreover, the “caspase 3 activation (cleavage of PARP and procaspase)” value in data set [22] is reported as “induced”. Moreover, in data set [23], the “depolarization of the mitochondrial membrane potential” value was “induced”.

Consider `CN1CCN(Cc2cc(/C=C3\CNC/C(=C\c4ccc([N+](=O)[O-])cc4)C3=O)ccc2O)CC1` [Compound 3e], for which, in data set [24], the “HCT116 SI (selectivity index)” value worked out at 46.5. In data set [25], the “HT29 SI (selectivity index)” value is reported as 49.4. In addition, the values for the IC50 in data set [11] and in data set [12] were 15.8 ± 0.27 µM and 0.33 µM, respectively. The “Average SI” value in data set [12] is 48.0. Further, in [12], the “PSE (potency-selectivity expression)” value was 14,546. In addition, the CC50 in [2] (Homo sapiens, Ca9-22) was 0.33 µM; in [3] (Homo sapiens, HSC-2), 0.58 µM; in [4] (Homo sapiens, HSC-3), 0.47 µM; in data set [5] (Homo sapiens, HSC-4) it was 0.6 µM; in [6] (Homo sapiens) it was below 1 µM; in data set [6], 0.5 µM. Also, the CC50 came out at 0.76 ± 0.15 µM in [17] (setting [26]), 0.83 ± 0.03 µM in data set [17] (setting [27]), 4.11 µM in [18] (setting [28]) and 6.63 ± 0.68 µM in data set [18] (setting [29]). In addition, the “Ca9-22 SI” value in data set [2] was 17.3. The “HSC-2 SI” value in [3] is recorded as 9.83. The “HSC-3 SI” value in [4] came out at 12.1. Moreover, in data set [5], the “HSC-4 SI” value is 9.50. Besides, the CC50 at 48 h in [13] is 12.5 µM; in data set [14], 2.7 µM; in [15], 1.9 µM; in data set [16], 5.7 µM. The apoptotic cells result in data set [20] is “approximately 30%”. The ROS generation entry in data set [21] was “generate ROS”. Further, the “caspase 3 activation (cleavage of PARP and procaspase)” value in [22] was “induced”. For the same compound, the “depolarization of the mitochondrial membrane potential” value in [23] is on record as “induced”.
